Measurements published in patent publication EP0231622B1, “Inhibition of the 5-lipoxygenase pathway” (priority 1985, dated 1987).
Read-outs that look alike come from different tables or passages of the source. Marks after values point to notes of the source that are not given here.

Columns and labels:
[1] = test system: Arachidonic Acid-Induced Inflammation of the Mouse Ear; experiment: Arachidonic acid-induced mouse ear inflammation; type: in vivo, Balb/c mice; conditions: for % Inhibition of Ear Swelling: Table 7A, NS = not significant
Source text: (§1) In the following Examples where mice were used, they were male Balb/c mice (20-28 g), and where rats were used, they were male Lewis rats (180-210 g). All mice and rats were obtained from Charles River Breeding Laboratories, Kingston, N.Y. Within a single experiment, mice and rats were sex and age matched.
(§2) The compounds of Formula (IA) were used either as the free base or in the appropriate salt form. Levamisole was used as the hydrochloride salt. The compounds were homogenized in 0.5% tragacanth. Compounds were administered by gavage at the indicated dose in a final volume of 10 ml/kg. Nordihydroguaiaretic acid (NDGA) was solubilized in dimethylacetamide and diluted with olive oil for subcutaneous administration.
Arachidonic acid in acetone (2 mg/20 ul) was applied to the inner surface of the left ear. The thickness of both ears was then measured with a dial micrometer one hour after treatment, and the data were expressed as the change in thickness (10⁻³ cm) between treated and untreated ears.
Test compounds were given orally in 0.5% tragacanth at the times indicated in the text prior to the topical application of arachidonic acid.
Parenteral administration of compound was accomplished by subcutaneous injection of solution as indicated.

5-Lipoxygenase = molecular target: T1, 5-Lipoxygenase (Rattus norvegicus, UniProt P12527); experiment: 5-HETE production by RBL-1 high speed supernatant; type: biochemical; conditions: Table 8A; RBL-1 high speed supernatant
T1 construct: The activities of these enzymes in extracts of RBL-1 cells were assayed; host or cells: RBL-1 cells, disrupted by nitrogen cavitation; 10,000 x g or 100,000 x g supernatant
T1 sequence (P12527 1-673): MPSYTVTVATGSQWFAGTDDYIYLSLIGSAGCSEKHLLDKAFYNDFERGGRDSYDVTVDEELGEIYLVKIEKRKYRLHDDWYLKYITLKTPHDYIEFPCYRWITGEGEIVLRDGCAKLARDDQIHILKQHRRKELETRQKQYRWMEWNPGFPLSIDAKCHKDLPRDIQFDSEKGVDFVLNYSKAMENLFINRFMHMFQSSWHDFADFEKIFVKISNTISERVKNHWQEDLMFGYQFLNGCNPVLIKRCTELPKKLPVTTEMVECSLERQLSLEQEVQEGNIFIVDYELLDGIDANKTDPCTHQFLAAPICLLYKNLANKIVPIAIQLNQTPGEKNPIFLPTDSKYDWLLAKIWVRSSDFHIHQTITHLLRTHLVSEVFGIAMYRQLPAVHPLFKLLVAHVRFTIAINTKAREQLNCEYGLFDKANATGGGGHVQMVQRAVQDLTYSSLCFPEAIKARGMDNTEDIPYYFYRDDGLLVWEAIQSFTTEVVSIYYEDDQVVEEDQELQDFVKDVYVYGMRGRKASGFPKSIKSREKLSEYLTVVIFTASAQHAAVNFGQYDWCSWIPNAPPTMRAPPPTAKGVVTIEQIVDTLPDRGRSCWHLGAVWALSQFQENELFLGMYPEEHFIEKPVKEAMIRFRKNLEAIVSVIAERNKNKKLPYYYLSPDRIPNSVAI
Procedure: (§3) For in vitro experiments, compounds were dissolved at appropriate concentrations in ethanol or DMSO (dimethylsulfoxide) (final concentration <1.0%) and then diluted to final concentrations using the buffers indicated in the text.
(§4) The activities of these enzymes in extracts of RBL-1 cells were assayed using the method of Jakschik and Lee, Nature, 287, 51-52 (1980). RBL-1 cells were obtained from the American Type Culture Collection (#CRL 1378) and were grown at 37°C (5% CO₂ in air) in spinner culture in MEM supplemented with 10% heat inactivated fetal calf serum. Harvested cells were washed with 50 mM sodium phosphate buffer, pH 7.0, containing 1 mM EDTA and 0.1% gelatin, resuspended in fresh buffer (5 x 10⁷ cells/ml) and disrupted by nitrogen cavitation using the Parr bomb at 750 psi for 10 min. The broken cell extract was then centrifuged at 10,000 x g for 20 minutes and the supernatant centrifuged at 100,000 x g for 60 minutes. Aliquots (0.25 mls) of the supernatant were preincubated with or without drugs for 10 min, after which 10 ul CaCl₂ (50 mM) was added and the reaction was initiated with 2.5 ul of 2.5 mM arachidonic acid-1-¹⁴C (final concentration was […]; specific activity 20,000 dpm/nmole). After incubation for 3 min at 37°C, the reaction was terminated by addition of 2 volumes (0.5 ml) ice cold acetone and the sample was allowed to deproteinize on ice for 10 min prior to centrifugation at 1,000 x g for 10 min. The deproteinized supernatant was adjusted to pH 3.5 with 2N formic acid and extracted with 2 volumes of ice cold ethyl acetate. The extracted samples were dried under argon, redissolved in ethyl acetate and applied to Whatman LK5D thin layer chromatography (TLC) plates which were developed using the A-9 solvent system [organic phase of ethyl acetate: 2,2,5-trimethylpentane:acetic acid: water (110:50:20:10)] described by Hamberg and Samuelsson, J. Biol. Chem., 241, 257-263 (1966). Arachidonic acid, 5-HETE, di-HETE and PGD₂ were quantified with a Berthold LB 2832 autoscanner.
(§5) The 5-lipoxygenase and LTA₄ synthetase activities were further studied under the following conditions. An additional centrifugation of the RBL-1 supernatant was run at 100,000 x g for 60 min, to remove the particulate cyclooxygenase activity. Sample incubation was done under conditions similar to those described above, i.e., 2 mM CaCl₂ and 25 uM arachidonic acid-1-¹⁴C, however, with an incubation time of 5 min at […]. Under these conditions, only the 5-lipoxygenase pathway metabolites were detectable. The 5-HETE and di-HETEs were formed at a linear rate, and […] amounts of the arachidonic acid-1-¹⁴C substrate were utilized.

5-LO = molecular target: T2, 5-LO (Rattus norvegicus, UniProt P12527); experiment: di-HETE production by RBL-1 high speed supernatant; type: biochemical; conditions: Table 9A; di-HETE production by RBL-1 high speed supernatant; read-out: 5-LO IC50
T2 construct: The activities of these enzymes in extracts of RBL-1 cells were assayed; host or cells: RBL-1 cells, disrupted by nitrogen cavitation; 10,000 x g or 100,000 x g supernatant
T2 sequence (P12527 1-673): T1 sequence (P12527 1-673)
Procedure: as §3, §4, §5

[2] = test system: Polymorphonuclear Leukocytes; experiment: Mouse Carrageenan Peritonitis (PMN infiltration); type: in vivo, Balb/c mice
Source text: as §1, §2
Mice were pretreated with either the test compound or vehicle one hour before the intraperitoneal injection of a 1.0% carrageenan suspension in saline (0.2 ml/ mouse). Mice were sacrificed by cervical dislocation two hours after injection, and 3.0 ml of phosphate buffered saline, without Ca⁺⁺ or Mg⁺⁺, was injected into the peritoneum. Following massage, a 2.0 ml aliquot of the lavage fluid was removed, and the total cell count determined on a Coulter counter and differential cell count determined by microscopic examination of Giesma-stained slides.

[3] = test system: Production of PGE₂ by Mouse Peritoneal Exudate Cells; experiment: PGE2 production by peritoneal macrophages; type: cell-based
Procedure: as §3
Mice were injected intraperitoneally with 350 »g Corynebacterium parvum and the peritoneal exudate cell population was harvested 12-14 days later by peritoneal lavage with cold phosphate-buffered saline, and resuspended in Eagles minimal essential medium supplemented with 5% fetal calf serum. […] Test compounds were added (100 ul) to bring the final volume to 1.0 ml. Lipopolysaccharide (5 »g/ml) was then added to stimulate PGE₂ synthesis. After incubation at 37°C for 2 hours, cell-free supernatants were harvested, placed in polypropylene tubes and frozen at -20°C until assayed for their PGE₂ content using a commercial radioimmunoassay kit. IC₅₀ is the concentration that inhibits 50% of control activity.

[4] = Table 2, Experiment 1, 12.5 mg/kg, p.o.
[5] = Table 2, Experiment 1, 25 mg/kg, p.o.
[6] = Table 2, Experiment 1, 50 mg/kg, p.o.
[7] = Table 7, 25 mg/kg, p.o., pretreated at 2 hrs
[8] = Table 2, Experiment 2, 50 mg/kg, s.c.

Row | IC50 (5-Lipoxygenase) [µM] | IC50 (5-LO) [µM] | Structure (SMILES) | % Inhibition of Ear Swelling ([1]; 50 mg/kg s.c. or i.p.) | further results
1 | 5 | 1.5 | CN(C)c1ccc(-c2c(-c3ccc(F)cc3)nc3n2CCS3)cc1 [Compound 10, 5-(4-N,N-Dimethylaminophenyl)-6-(4-fluorophenyl)-2,3-dihydroimidazo[2,1-b]thiazole] | 17* % | –
2 | 101 | 60 | [O-][S+]1CCn2c1nc(-c1ccncc1)c2-c1ccc(F)cc1 (centres unmarked) [Compound 42] | 50*** % | –
3 | 0.35 | 0.16 | CCN(CC)c1ccc(-c2nc3n(c2-c2ccc(N(CC)CC)cc2)CCS3)cc1 [Compound 9, 5,6-bis(4-N,N-diethylaminophenyl)-2,3-dihydroimidazo [2,1-b]thiazole] | – | –
4 | 10 | 10 | FC(F)(F)c1ccc(-c2nc3n(c2-c2ccc(C(F)(F)F)cc2)CCS3)cc1 [Compound 15] | – | –
5 | 12 | 7 | CCCNc1ccc(-c2nc3n(c2-c2ccncc2)CCS3)cc1 [Compound 2, 6-(4-(1-Propylamino)phenyl)-5-(4-pyridyl)-2,3-dihydroimidazo[2,1-b]thiazole] | – | –
6 | 0.5 | 0.5 | c1cc(-c2c(-c3ccc(N4CCCC4)cc3)nc3n2CCS3)ccn1 [Compound 25, 5-(4-pyridyl)-6-(4-(pyrrolidin-1-yl)phenyl)-2,3-dihydroimidazo[2,1-b]thiazole] | – | –
7 | 1000 | 1000 | [O-][S+]1CCn2c1nc(-c1ccc(F)cc1)c2-c1ccncc1 (centres unmarked) [Compound 28, 6-(4-fluorophenyl)-5-(4-pyridyl)-2,3-dihydroimadazo-[2,1-b]thiazole-1-oxide] | – | –
8 | 67 | 32 | Fc1ccc(-c2nc3n(c2-c2ccncc2)CCC3)cc1 [Compound 39, 2-(4-fluorophenyl)-3-(4-pyridyl)-6,7-dihydro-[5H]-pyrrolo [1,2-a]imidazole] | 93% | –
9 | 69 | 30 | CC(=O)Nc1ccc(-c2nc3n(c2-c2ccncc2)CCS3)cc1 [Compound 38, 5-(4-pyridyl)-6-(4-acetamidophenyl)-2,3-dihydroimidazo [(2,1-b)]thiazole] | – | –

The next lines start with the compound.

Row | Structure (SMILES) | IC50 (5-Lipoxygenase) [µM] | IC50 (5-LO) [µM] | % Inhibition of Ear Swelling ([1]; 50 mg/kg s.c. or i.p.) | further results
10 | O=C(c1ccccc1)N1C=CC(c2c(-c3ccc(F)cc3)nc3n2CCS3)C=C1 [Compound 49] | 73 | 53 | 15* % | –
11 | CC(=O)OC[C@H]1O[C@@H]([S-])[C@H](OC(C)=O)[C@@H](OC(C)=O)[C@@H]1OC(C)=O.CCP(CC)CC.[Au+] [Auranofin] | – | – | – | PMN x 10⁻⁵/ml (mean ± S.D.) ([2]; Table 3, 2 (mg Au/kg), p.o.): 7.50 ± 1.57 x 10⁻⁵/ml
12 | c1ccc([C@H]2CN3CCSC3=N2)cc1 [Levamisole] | – | – | – | % Change ([2]; Table 3, 100 mg/kg, p.o.): -37^b %; PMN x 10⁻⁵/ml (mean ± S.D.) ([2]; Table 3, 100 mg/kg, p.o.): 5.88 ± 2.70 x 10⁻⁵/ml
13 | COc1ccc(-c2nc3n(c2-c2ccncc2)CCC3)cc1 [Compound 40, 2-(4-methoxyphenyl)-3-(4-pyridyl)-6,7-dihydro-[5H]-pyrrolo [1,2-a]imidazole] | 16 | 10 | – | % Inhibition of Ear Swelling ([1]; 50 mg/kg oral dosing (p.o.)): 83 (p.o.) %
14 | COc1ccc2cc([C@H](C)C(=O)O)ccc2c1 [Naproxen] | – | – | – | IC50 ([3]; Macrophage, read-out: IC₅₀ production of PGE₂ by inflammatory macrophages): 1.8 µM; IC50 ([3]; Peritoneal macrophage, read-out: IC₅₀ (»M) production of PGE₂): 1.8 µM
15 | c1cc(-c2nc3n(c2-c2ccc4c(c2)OCO4)CCS3)ccn1 [Compound 7, 6-(4-pyridyl)-5-(3,4-methylenedioxyphenyl)-2,3-dihydroimidazo[2,1-b]thiazole] | 10 | 10 | – | –
16 | c1cc(N2CCCCC2)ccc1-c1nc2n(c1-c1ccc(N3CCCCC3)cc1)CCS2 [Compound 4, 5,6-bis(4-(1-piperidinyl)phenyl)-2,3-dihydroimidazo[2,1-b] thiazole] | 1.2 | 0.6 | – | –
17 | CCOC(=O)N1C=CC(c2c(-c3ccc(F)cc3)nc3n2CCS3)C=C1 [Compound 48] | 9 | 7 | 25*** % | –
18 | COc1ccc(-c2nc3n(c2-c2ccncc2)CC[S+]3[O-])cc1 (centres unmarked) [Compound 41] | – | – | 45*** % | –
19 | c1cc2c(cc1-c1nc3n(c1-c1ccc4c(c1)OCO4)CCS3)OCO2 [Compound 16] | 3.8 | 1.5 | – | –
20 | C[C@@H]1C[C@H]2[C@@H]3CCC4=CC(=O)C=C[C@]4(C)[C@@]3(F)[C@@H](O)C[C@]2(C)[C@@]1(O)C(=O)CO [Dexamethasone] | – | – | – | % Change [2, 4]: -54^b %; PMN x 10⁻⁵/ml (mean ± S.D.) [2, 4]: 9.1 ± 2.0 x 10⁻⁵/ml; % Change [2, 5]: -55^b %; PMN x 10⁻⁵/ml (mean ± S.D.) [2, 5]: 8.8 ± 2.6 x 10⁻⁵/ml; % Change [2, 6]: -69^b %; PMN x 10⁻⁵/ml (mean ± S.D.) [2, 6]: 6.1 ± 1.5 x 10⁻⁵/ml; % Change [1, 7]: -35^c %; Increase in Ear Thickness at 1 Hour (x 10⁻³ cm) [1, 7]: 18.2 ± 4.1 x 10⁻³ cm
21 | CC(Cc1ccc(O)c(O)c1)C(C)Cc1ccc(O)c(O)c1 (centres unmarked) [NDGA, Nordihydroguaiaretic acid] | – | – | – | % Change [2, 8]: 41^c %; PMN x 10⁻⁵/ml (mean ± S.D.) [2, 8]: 5.7 ± 2.1 x 10⁻⁵/ml
22 | CSc1ccc(-c2nc3n(c2-c2ccc(F)cc2)CCS3)cc1 [Compound 47] | – | – | 22*** % | –
